According to US20130172294A1, “Treatment with VB-201” (Vascular Biogenics Ltd., priority 2010, published 2013):

Columns and labels:
Format in all cases: in vivo, human
[1] = Repeated daily dose pharmacokinetics, 40 and 80 mg (Example 4)
Description: Determination of VB-201 concentrations in plasma was performed using an HPLC-MS/MS (high performance liquid chromatography with tandem mass spectrometric detection) assay. Calibration was for a range of from 5 to 500 ng/ml for low doses and from 50 to 5000 ng/ml for high doses. Pharmacokinetic parameters were estimated by using a non-compartmental method, except for the AUC (area under curve), which was determined using a (log-) trapezoidal rule as the area above the previous trough level. […] The subjects were all healthy volunteers. […] 6 subjects received a placebo. The VB-201 was formulated in non-enterocoated capsules. Blood was collected for pharmacokinetic evaluation on day 1 (40 mg cohort) and on day 14 (40 and 80 mg cohorts).

[2] = tested on: interleukin-23 (IL-23); experiment: Plasma cytokine assay, IL-23 (Example 5)
Description: Acquisition of samples was performed using FacsCalibur (Becton Dickinson).

[3] = Safety and tolerability, food and coating study (Example 3)
From the text: Safety and tolerability of VB-201 was judged by evaluating the incidence of abnormal findings in the following measurements: vital signs: systolic and diastolic blood pressure, heart rate, respiratory rate, body temperature; physical examination; 12-lead electrocardiogram; laboratory tests of blood samples for: complete blood count, prothrombin time/partial thromboplastin time, LDL- and HDL-cholesterol, total cholesterol, triglycerides, glucose, blood urea nitrogen, sodium, potassium, creatinine, calcium, phosphorus, creatinine phosphokinase, lactate dehydrogenase, aspartate transaminase, alanine transaminase, γ-glutamyl transferase, alkaline phosphatase, protein, albumin, total bilirubin, total IgM and IgG antibodies, interleukin-12/23 p40, tumor necrosis factor-α, and interleukin-6, as well as routine urinalysis; and all adverse events, whether or not considered serious, and whether or not considered related to the investigational agent, according to the criteria for Good Clinical Practice. Treatment-emergent adverse events were defined as any adverse event that started on or after administration of the first dose of VB-201, and no more than 30 days after administration of the last dose, or are ongoing at the time of the first dose and worsened in severity or frequency during treatment. […]

AUC(0-infinity) ([1]; daily 40 mg, Day 1): 31952 ± 9680 ng·h/mL
Cl/F (0-24) ([1]; daily 40 mg, Day 1): 2.837 ± 1.064 L/h
Cl/F(0-infinity) ([1]; daily 40 mg, Day 1): 1.346 ± 0.401 L/h
Cmax ([1]; daily 40 mg, Day 1): 923.7 ± 287.4 ng/mL
Ke ([1]; daily 40 mg, Day 1): 0.0305 ± 0.0124 h⁻¹
MTT (0-24) ([1]; daily 40 mg, Day 1): 12.0 ± 0.5 h
MTT(0-infinity) ([1]; daily 40 mg, Day 1): 41.3 ± 17.6 h
T1/2 ([1]; daily 40 mg, Day 1): 26.8 ± 13.0 h
Tmax ([1]; daily 40 mg, Day 1): 8.7 ± 3.8 h
AUC(0-24) ([1]; daily 40 mg, Day 14): 47393 ± 16792 ng·h/mL
AUC(0-infinity) ([1]; daily 40 mg, Day 14): 117013 ± 55816 ng·h/mL
Cl/F (0-24) ([1]; daily 40 mg, Day 14): 0.970 ± 0.436 L/h
Cl/F(0-infinity) ([1]; daily 40 mg, Day 14): 0.405 ± 0.172 L/h
Cmax ([1]; daily 40 mg, Day 14): 2544.6 ± 800.5 ng/mL
Ke ([1]; daily 40 mg, Day 14): 0.0270 ± 0.0111 h⁻¹
MTT (0-24) ([1]; daily 40 mg, Day 14): 11.1 ± 0.4 h
MTT(0-infinity) ([1]; daily 40 mg, Day 14): 45.2 ± 18.8 h
T1/2 ([1]; daily 40 mg, Day 14): 30.2 ± 13.6 h
Tmax ([1]; daily 40 mg, Day 14): 4.2 ± 2.0 h
AUC(0-24) ([1]; daily 80 mg, Day 14): 89779 ± 21751 ng·h/mL
AUC(0-infinity) ([1]; daily 80 mg, Day 14): 206918 ± 62474 ng·h/mL
Cl/F (0-24) ([1]; daily 80 mg, Day 14): 0.941 ± 0.247 L/h
Cl/F(0-infinity) ([1]; daily 80 mg, Day 14): 0.422 ± 0.144 L/h
Cmax ([1]; daily 80 mg, Day 14): 4820.2 ± 930.3 ng/mL
Ke ([1]; daily 80 mg, Day 14): 0.0251 ± 0.0048 h⁻¹
MTT (0-24) ([1]; daily 80 mg, Day 14): 11.0 ± 0.4 h
MTT(0-infinity) ([1]; daily 80 mg, Day 14): 41.5 ± 7.8 h
T1/2 ([1]; daily 80 mg, Day 14): 28.5 ± 5.8 h
Tmax ([1]; daily 80 mg, Day 14): 6.0 ± 1.1 h
Structure (SMILES): CCCCCCCCCCCCCCCCOCC(COP(=O)([O-])OCC[N+](C)(C)C)OCCCCC(=O)O (stereo not drawn) [VB-201, 1-hexadecyl-2-(4′-carboxybutyl)-glycerol-3-phosphocholine]
IL-23 plasma levels ([2]; 40 mg per day, 14 days, both subjects with detectable pre-dose IL-23): considerably reduced
IL-23 plasma levels ([2]; 80 mg per day, 28 days, all three subjects): considerably reduced
safety and tolerability ([3]; enteric coated and non-coated capsules, 10 to 20 mg, fasting or fed): as safe and tolerable as placebo
serious or treatment-emergent adverse events ([3]; single dose 10-20 mg, coated and non-coated, fed and fasting): No serious or treatment-emergent adverse events occurred
